According to patent US20230055237A1, “COMPOUNDS AND METHODS FOR THE TREATMENT OF CYSTIC FIBROSIS” (Flatley Discovery Lab, LLC, priority 2019, published 2023):

Biological target: T1, CFTR (Homo sapiens, UniProt P13569, DEL508-508)
T1 construct: Primary CF airway epithelial cells were obtained from the UNC Cystic Fibrosis Tissue Procurement and Cell Culture Core; host or cells: primary CF airway epithelial cells, differentiated at the air-liquid interface
Assay: Equivalent current assay in primary CF airway epithelial cells (NAUC, combination with 1st site corrector FDL169 or VX-809)
Format: cell-based
Details: 37° C., 24 h
Experimental: Primary CF airway epithelial cells were obtained from the UNC Cystic Fibrosis Tissue Procurement and Cell Culture Core. The cells are grown at 37° C. in a Heracell 150i incubator using growth media (BEGM, Fischer). […] Two days before the Ussing assay the mucus on the apical surface of the cells was aspirated after incubating with 200 μL of differentiation media for at least thirty (30) minutes. One day before the Ussing assay test compounds were added to the basolateral surface of the cells at various test concentrations dissolved in DMSO. Duplicate wells were prepared giving a n=3 or n=4 protocol.
Cells were treated for 24 hours with various combinations and concentrations of the test articles, reference standard (3 μM VX809 or 3 μM FDL169, positive control). Compounds stock solutions were prepared in DMSO and diluted 1/1000 into ALI media to their final assay concentration. Cells were treated with combination solutions (2 mL of each dilution) and incubated at 37° C. for 24 h.
For the equivalent current assay, cells on four Transwell (24-well) plates were treated. Each Transwell plate was filled with 200 μl of HBS on the apical surface and 2 ml on the basolateral surface. Plates were placed horizontally in a heated mount at 37° C., and equilibrated for several minutes. Resting current was measured for 15 min and then blocked by the apical addition of 5 μM benzamil. After 20 min, 10 μM forskolin and 1 μM VX770 were added to both the apical and basolateral side to stimulate CFTR. An increase in chloride current is seen as an upward deflection of the trace.
The raw data, current vs. time for the Ussing chamber (sampling interval: 10 s) and voltage vs. time and resistance vs. time for the equivalent current assay (sampling interval: 5 minutes) were transferred to Excel (Microsoft Office Professional, version 14.0.7106.5003) for analysis. […] This average is equivalent to the sum of the average forskolin activated and the average VX770-potentiated currents. The average current measured in vehicle (0.1% DMSO) treated cells, Iv, was subtracted from the current for the test article, ITA, or from the corrector reference standard VX809 (3 uM ISTD). For replicate measurements, the average vehicle subtracted response for the test article, was normalized to the average vehicle subtracted inhibitor response of the reference corrector VX809 (3 μM).
A second endpoint, for the equivalent current assay, evaluated was NAUC, the normalized area under the curve (AUC) measuring the response after addition of forskolin and VX770 to the time point right before the addition of the CFTR inhibitor. The AUC is effectively the average response multiplied by the duration of the response.
NAUCTA=[AUCTA−AUCV,ave]/[AUCVx809r,ave−AUCV,ave] (Equation 2).
Experiments were run with a minimum of n=4 replicates per concentration. Since the distribution for the ratio of two normal distributions is a Cauchy distribution, the median value must be used for the average and the average deviation must be used for the error of all normalized data.
E=Emin+(Emax−Emin)/(1+10^((LogEC5OS)*nH)) (Equation 3)

[1] = test compound 1 μM in combination with 1st site corrector FDL169 (3 μM)
[2] = test compound 3 μM in combination with 1st site corrector FDL169 (3 μM)
[3] = test compound 1 μM in combination with 1st site corrector VX-809 (3 μM)
[4] = test compound 3 μM in combination with 1st site corrector VX-809 (3 μM)
[5] = test compound 10 μM in combination with 1st site corrector VX-809 (3 μM)

T1 sequence (P13569 with tags, fused parts or gaps DEL508-508): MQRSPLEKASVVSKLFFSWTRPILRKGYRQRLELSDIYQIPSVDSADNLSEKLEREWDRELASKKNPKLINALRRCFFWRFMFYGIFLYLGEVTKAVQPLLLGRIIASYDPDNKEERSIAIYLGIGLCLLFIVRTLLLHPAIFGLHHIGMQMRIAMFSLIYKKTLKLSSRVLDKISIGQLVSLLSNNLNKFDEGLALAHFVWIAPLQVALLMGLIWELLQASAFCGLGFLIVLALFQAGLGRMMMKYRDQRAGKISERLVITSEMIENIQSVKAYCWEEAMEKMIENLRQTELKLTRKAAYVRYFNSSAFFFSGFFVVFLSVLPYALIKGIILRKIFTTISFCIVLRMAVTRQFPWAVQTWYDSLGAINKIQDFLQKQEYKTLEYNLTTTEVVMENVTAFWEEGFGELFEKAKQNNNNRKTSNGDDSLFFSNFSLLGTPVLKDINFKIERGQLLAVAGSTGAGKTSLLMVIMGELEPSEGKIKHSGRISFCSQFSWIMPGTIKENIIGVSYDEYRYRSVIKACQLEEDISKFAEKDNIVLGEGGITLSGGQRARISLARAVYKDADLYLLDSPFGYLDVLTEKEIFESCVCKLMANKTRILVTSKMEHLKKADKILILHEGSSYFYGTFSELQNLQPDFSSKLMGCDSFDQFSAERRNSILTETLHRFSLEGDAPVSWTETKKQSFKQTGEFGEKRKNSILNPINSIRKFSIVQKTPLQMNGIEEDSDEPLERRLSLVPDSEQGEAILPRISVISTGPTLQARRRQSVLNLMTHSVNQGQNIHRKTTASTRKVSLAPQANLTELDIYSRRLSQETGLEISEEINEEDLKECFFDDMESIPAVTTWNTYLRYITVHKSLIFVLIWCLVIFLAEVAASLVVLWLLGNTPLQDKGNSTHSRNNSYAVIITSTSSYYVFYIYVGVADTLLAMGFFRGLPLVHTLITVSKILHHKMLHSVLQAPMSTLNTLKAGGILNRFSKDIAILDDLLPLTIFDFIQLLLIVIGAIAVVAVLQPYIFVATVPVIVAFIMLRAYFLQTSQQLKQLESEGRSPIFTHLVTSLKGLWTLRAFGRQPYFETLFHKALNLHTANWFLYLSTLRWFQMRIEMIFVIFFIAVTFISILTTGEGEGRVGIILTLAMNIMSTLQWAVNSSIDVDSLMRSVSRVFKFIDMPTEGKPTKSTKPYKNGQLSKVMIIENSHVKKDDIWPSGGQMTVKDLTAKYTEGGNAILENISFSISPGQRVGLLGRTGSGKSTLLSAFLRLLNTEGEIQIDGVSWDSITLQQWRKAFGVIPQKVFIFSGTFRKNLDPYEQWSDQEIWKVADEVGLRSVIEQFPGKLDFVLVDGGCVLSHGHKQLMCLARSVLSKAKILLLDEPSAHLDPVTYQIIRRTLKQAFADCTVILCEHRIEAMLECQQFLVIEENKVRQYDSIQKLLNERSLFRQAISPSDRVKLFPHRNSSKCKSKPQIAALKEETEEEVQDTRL

| Structure (SMILES) | Nauc @ 1 μM [1] | Nauc @ 3 μM [2] | Nauc @ 1 μM [3] | Nauc @ 3 μM [4] | Nauc @ 10 μM [5] | Nauc @ 10 μM (test compound 10 μM in combination with 1st site corrector FDL169 (3 μM)) |
| --- | --- | --- | --- | --- | --- | --- |
| Cn1ccc2c(NC(=O)[C@H]3[C@H]4CC(F)(F)CN4[C@]4(C(=O)Nc5c(Cl)cc(Cl)cc54)[C@H]3C(=O)O)cccc21 [Example 141] | + (NAUC “+” refers to an observed NAUC <140% of positive control) | + (NAUC “+” refers to an observed NAUC <140% of positive control) |  |  |  |  |
| O=C(Nc1nccc2cccnc12)[C@H]1[C@H]2CC(F)(F)CN2[C@]2(C(=O)Nc3c(Cl)cc(Cl)cc32)[C@H]1C(=O)O [Example 135] |  |  | + (NAUC “+” refers to an observed NAUC <140% of positive control) | + (NAUC “+” refers to an observed NAUC <140% of positive control) | + (NAUC “+” refers to an observed NAUC <140% of positive control) |  |
| CC(=O)NNC(=O)[C@H]1[C@@H](C(=O)Nc2cc(Cl)cc(Cl)c2)[C@H]2CCCN2[C@]12C(=O)Nc1c(Cl)cc(Cl)cc12 (single isomer, unassigned) [Example 242, (1′R,2′S,7a′R)-2′-(2-acetylhydrazine-1-carbonyl)-5,7-dichloro-N-(3,5-dichlorophenyl)-2-oxo-1′,2′,5′,6′,7′,7a′-hexahydrospiro[indoline-3,3′-pyrrolizine]-1-carboxamide] |  |  | + (NAUC “+” refers to an observed NAUC <140% of positive control) | + (NAUC “+” refers to an observed NAUC <140% of positive control) | + (NAUC “+” refers to an observed NAUC <140% of positive control) |  |
| Cn1cnc(NC(=O)[C@H]2[C@@H](C(=O)Nc3cc(Cl)cc(Cl)c3)[C@H]3CCCN3[C@]23C(=O)Nc2c(Cl)cc(Cl)cc23)c1 (single isomer, unassigned) [Example 237, (1′R,2′S,7a′R)-5,7-dichloro-N1′-(3,5-dichlorophenyl)-N2′-(1-methyl-1H-imidazol-4-yl)-2-oxo-1′,2′,5′,6′,7′,7a′-hexahydrospiro[indoline-3,3′-pyrrolizine]-1′,2′-dicarboxamide] |  |  | + (NAUC “+” refers to an observed NAUC <140% of positive control) | + (NAUC “+” refers to an observed NAUC <140% of positive control) | ++ (NAUC “++” refers to an observed NAUC 170-140% of positive control) |  |
| Cc1ccccc1CCNC(=O)C1C2CC(F)(F)CN2C2(C(=O)Nc3c(Cl)cc(Cl)cc32)C1C(=O)O (stereo not drawn) [Example 47] |  |  |  | ++ (NAUC “++” refers to an observed NAUC 170-140% of positive control) | +++ (NAUC “+++” refers to an observed NAUC>170% of positive control) |  |
| Cn1nccc1NC(=O)[C@H]1[C@@H](C(=O)Nc2cc(Cl)cc(Cl)c2)[C@H]2CCCN2[C@]12C(=O)Nc1c(Cl)cc(Cl)cc12 (single isomer, unassigned) [Example 239, (1′R,2′ S,7a′R)-5,7-dichloro-N1′-(3,5-dichlorophenyl)-N2′-(1-methyl-1H-pyrazol-5-yl)-2-oxo-1′,2′,5′,6′,7′,7a′-hexahydrospiro[indoline-3,3′-pyrrolizine]-1′,2′-dicarboxamide] |  |  | + (NAUC “+” refers to an observed NAUC <140% of positive control) | + (NAUC “+” refers to an observed NAUC <140% of positive control) | + (NAUC “+” refers to an observed NAUC <140% of positive control) |  |
| CN(C)S(=O)(=O)NC(=O)C1C(C(=O)Nc2cc(Cl)cc(Cl)c2)C2C[C@](C)(O)CN2C12C(=O)Nc1c(Cl)cc(Cl)cc12 (stereo partly drawn) [Example 248, (6′S)-5,7-dichloro-N1′-(3,5-dichlorophenyl)-N2′-(N,N-dimethylsulfamoyl)-6′-hydroxy-6′-methyl-2-oxo-1′,2′,5′,6′,7′,7a′-hexahydrospiro[indoline-3,3′-pyrrolizine]-1,2′-dicarboxamide] |  |  | + (NAUC “+” refers to an observed NAUC <140% of positive control) | +++ (NAUC “+++” refers to an observed NAUC>170% of positive control) | +++ (NAUC “+++” refers to an observed NAUC>170% of positive control) |  |
| CN(C)C(=O)CN(C(=O)[C@H]1[C@H]2CC(F)(F)CN2[C@]2(C(=O)Nc3c(Cl)cc(Cl)cc32)[C@H]1C(=O)O)c1cc(Cl)cc(Cl)c1 [Example 153] | + (NAUC “+” refers to an observed NAUC <140% of positive control) | + (NAUC “+” refers to an observed NAUC <140% of positive control) |  |  |  |  |
| O=C(Nc1cncc(C(F)(F)F)n1)C1C2C[C@@](O)(C(F)(F)F)CN2C2(C(=O)Nc3c(Cl)cc(Cl)cc32)C1C(=O)O (stereo partly drawn) [Example 17] |  |  |  | +++ (NAUC “+++” refers to an observed NAUC>170% of positive control) | +++ (NAUC “+++” refers to an observed NAUC>170% of positive control) |  |
| NNC(=O)[C@H]1[C@@H](C(=O)Nc2cc(Cl)cc(Cl)c2)[C@H]2CCCN2C12C(=O)Nc1c(Cl)cc(Cl)cc12 (stereo partly drawn) [Example 236, (1′R,2′S,7a′R)-5,7-dichloro-N-(3,5-dichlorophenyl)-2′-(hydrazinecarbonyl)-2-oxo-1′,2′,5′,6′,7′,7a′-hexahydrospiro[indoline-3,3′-pyrrolizine]-1′-carboxamide] |  |  | + (NAUC “+” refers to an observed NAUC <140% of positive control) | ++ (NAUC “++” refers to an observed NAUC 170-140% of positive control) | +++ (NAUC “+++” refers to an observed NAUC>170% of positive control) |  |
| CC(C)(C)c1cccc(CCNC(=O)C2C3CCCN3C3(C(=O)Nc4c(Cl)cc(Cl)cc43)C2C(=O)O)c1 (stereo not drawn) [Example 53] |  |  |  | +++ (NAUC “+++” refers to an observed NAUC>170% of positive control) | +++ (NAUC “+++” refers to an observed NAUC>170% of positive control) |  |
| Cc1nn(-c2ccccc2)cc1N(CC1CC1)C(=O)[C@H]1[C@H]2CC(F)(F)CN2[C@]2(C(=O)Nc3c(Cl)cc(Cl)cc32)[C@H]1C(=O)O [Example 167] | + (NAUC “+” refers to an observed NAUC <140% of positive control) | + (NAUC “+” refers to an observed NAUC <140% of positive control) |  |  |  |  |
| COc1cc(C(F)(F)F)cc(NC(=O)C2C3CC(F)(F)CN3C3(C(=O)Nc4c(Cl)cc(Cl)cc43)C2C(=O)O)n1 (single isomer, unassigned) [Example 80.7a.1, 5,7-dichloro-6′,6′-difluoro-1′-((6-methoxy-4-(trifluoromethyl)pyridin-2-yl)carbamoyl)-2-oxo-1′,2′,5′,6′,7′,7a′-hexahydrospiro[indoline-3,3′-pyrrolizine]-2′-carboxylic acid] |  |  |  |  | + (NAUC “+” refers to an observed NAUC <140% of positive control) |  |
| O=C(O)[C@H]1[C@@H](C(=O)N(c2cc(Cl)cc(Cl)c2)C2CCCC2)[C@H]2CC(F)(F)CN2[C@]12C(=O)Nc1c(Cl)cc(Cl)cc12 [Example 175] | +++ (NAUC “+++” refers to an observed NAUC>170% of positive control) | +++ (NAUC “+++” refers to an observed NAUC>170% of positive control) |  |  |  | +++ (NAUC “+++” refers to an observed NAUC>170% of positive control) |
| O=C(Nc1cc(Cl)cc(Cl)c1)C1C(C(F)(F)F)NC2(C(=O)Nc3c(Cl)cc(Cl)cc32)C1C(=O)O (stereo not drawn) [Example 40] |  |  |  | +++ (NAUC “+++” refers to an observed NAUC>170% of positive control) | +++ (NAUC “+++” refers to an observed NAUC>170% of positive control) |  |
